Assay [1] has as its target T1, CSF-1R (Homo sapiens, UniProt P07333).
T1 construct: The His-tagged kinase domain of CSF-1R (i.e., amino acids 568-912, GeneBank ID NM_005211); His; made in house; host or cells: baculovirus infected SF+Express insect cells
T1 sequence (P07333 568-912): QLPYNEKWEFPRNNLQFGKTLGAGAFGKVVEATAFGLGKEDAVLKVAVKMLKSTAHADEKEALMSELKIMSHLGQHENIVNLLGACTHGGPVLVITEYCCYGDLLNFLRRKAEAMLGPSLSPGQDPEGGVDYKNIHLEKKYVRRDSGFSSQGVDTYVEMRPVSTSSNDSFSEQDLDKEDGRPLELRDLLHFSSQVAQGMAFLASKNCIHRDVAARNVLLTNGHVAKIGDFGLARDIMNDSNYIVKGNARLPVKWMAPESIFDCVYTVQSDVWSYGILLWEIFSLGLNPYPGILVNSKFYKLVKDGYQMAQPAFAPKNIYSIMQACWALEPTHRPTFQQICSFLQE
Put plainly: Assay 2: CSF1R In-Vitro AlphaScreen Assay. Conditions: purified His-tagged kinase domain of CSF-1R, 12 mM ATP in mix. Type of assay: biochemical. The procedure: Assay 2: CSF1R In-Vitro AlphaScreen Assay
Activity of purified CSF-1R was determined in-vitro using an Amplified Luminescent Proximity Homogeneous Assay (ALPHA) (Perkin Elmer, Mass.), which measures phosphorylation of CSF-1R substrate, biotinylated […] peptide (pEY-HTRF CisBio 61GT0BLD), as described below. The His-tagged kinase domain of CSF-1R (i.e., amino acids 568-912, GeneBank ID NM_005211) was purified from baculovirus infected SF+Express insect cells (1.4×10^6 cells/ml), French pressed and chromatographed through subsequent QIAgen Ni-NTA, Superflow Mono Q HR 10/10, and Superdex 200 SEC columns.
The phosphorylation of the CSF-1R substrate in the presence and absence of the compound of interest was determined. Briefly, 5 ul of Enzyme/Substrate/adenosine triphosphate (ATP) mix consisting of 0.46 nM of purified CSF-1R, 12 nM pEY substrate, and 12 mM ATP in 1.2× buffer was preincubated with 2 ul of compound for 20 minutes at 25° C. Reactions were initiated with 5 ul of Metal mix consisting of 24 mM MgCl2 in 1.2× buffer and incubated at 25° C. for 90 minutes and reactions were stopped by addition of 5 ul of Detection mix consisting of 20 mM HEPES, 102 mM ethylenediamine tetraacetic acid, 1.65 mg/ml BSA, 136 mM NaCl, 40 ug/ml Streptavidin donor beads (Perkin Elmer, Mass., Catalog #6760002), and 40 ug/ml phosphotyrosine-specific antibody coated acceptor beads (Perkin Elmer, Mass., Catalog #6760620). Plates were incubated at 25° C. for 18 hours in the dark. Phosphorylated substrate was detected by an EnVision plate reader (Perkin Elmer) 680 nm excitation, 520-620 nm emission. Data was graphed and IC50s calculated using Excel Fit (Microsoft).

In assay [2] the target is T1, CSF-1R. The assay is described as follows: Assay 1: CSF-1R In Vitro AlphaScreen Assay. The assay is classed as biochemical. Conditions: purified His-tagged kinase domain of CSF-1R, 90 μM ATP. The procedure:
The phosphorylation of the CSF-1R substrate in the presence and absence of the compound of interest was determined. […] Plates were incubated at 25° C. for 18 hours in the dark. Phosphorylated substrate was detected by an EnVision plate reader (Perkin Elmer) 680 nm excitation, 520-620 nm emission. Data was graphed and IC50s calculated using Excel Fit (Microsoft).
For orientation: Bead proximity is the source of the signal in Alpha formats.

By IC50 is commonly meant the point on the concentration scale where inhibition reaches its midpoint. Read a high IC50 as weaker potency in that assay. In turn, `COCCOC1CCN(c2cc3c(Nc4ccc(C)cc4F)c(C(N)=O)nnc3cc2OC)CC1` [Example 60, 4-[(2-Fluoro-4-methylphenyl)amino]-7-methoxy-6-[4-(2-methoxyethoxy)piperidin-1-yl]cinnoline-3-carboxamide] came in with an IC50 against CSF-1R [1] of 0.039 µM. The same measure, in the same setting: for `COc1cc2nnc(C(N)=O)c(Nc3ccc(C)cc3F)c2cc1N1CC[C@H](N(C)C)C1` [Example 41, 6-[(3S)-3-(Dimethylamino)pyrrolidin-1-yl]-4-[(2-fluoro-4-methylphenyl)amino]-7-methoxycinnoline-3-carboxamide] the value was below 0.003 µM; for `Cc1ccc(Nc2c(C(N)=O)nnc3cc(N4CCN(S(C)(=O)=O)CC4)ccc23)c(F)c1` [Example 56, 4-[(2-Fluoro-4-methylphenyl)amino]-7-[4-(methylsulfonyl)piperazin-1-yl]cinnoline-3-carboxamide], 0.011 µM; for `COc1cc2nnc(C(N)=O)c(Nc3ccc(C)cc3F)c2cc1N1CCN(C[C@H](O)CO)CC1` [Example 67, 6-{4-[(25)-2,3-Dihydroxypropyl]piperazin-1-yl}-4-[(2-fluoro-4-methylphenyl)amino]-7-methoxycinnoline-3-carboxamide], 0.005 µM. Same read-out and setting: for `COc1cc2nnc(C(N)=O)c(Nc3ccc(C)cc3F)c2cc1CN1CCOCC1` [Example 73, 4-[(2-Fluoro-4-methylphenyl)amino]-7-methoxy-6-(morpholin-4-ylmethyl)cinnoline-3-carboxamide] the value was 0.052 µM. On the same count and under the same terms, for `COc1cc2nnc(C(N)=O)c(Nc3ccc(C)cc3F)c2cc1N1CCN(C(=O)C(C)(C)O)CC1` [Example 69, 4-[(2-Fluoro-4-methylphenyl)amino]-6-[4-(2-hydroxy-2-methylpropanoyl)piperazin-1-yl]-7-methoxycinnoline-3-carboxamide] the value was 0.023 µM; for `COc1cc2nnc(C(N)=O)c(Nc3ccc(C)cc3F)c2cc1C1CCN(C(=O)[C@H](C)O)CC1` [Example 70, 4-[(2-Fluoro-4-methylphenyl)amino]-6-{1-[(2S)-2-hydroxypropanoyl]piperidin-4-yl}-7-methoxycinnoline-3-carboxamide], 0.024 µM; for `COc1cc2nnc(C(N)=O)c(Nc3ccc(C)cc3F)c2cc1C1CCN(CC(F)F)CC1` [Example 71, 6-[1-(2,2-Difluoroethyl)piperidin-4-yl]-4-[(2-fluoro-4-methylphenyl)amino]-7-methoxycinnoline-3-carboxamide], 0.039 µM.

`COc1cc2nnc(C(N)=O)c(Nc3ccc(C)cc3F)c2cc1N1C[C@@H](C)N(C(C)=O)[C@@H](C)C1` [Example 72, 6-[(3R,55)-4-Acetyl-3,5-dimethylpiperazin-1-yl]-4-[(2-fluoro-4-methylphenyl)amino]-7-methoxycinnoline-3-carboxamide] had an IC50 at CSF-1R [1] of 0.052 µM. Regarding `COc1cc2nnc(C(N)=O)c(Nc3ccc(C)cc3F)c2cc1N1CCN(C[C@@H](O)CO)CC1` [Example 68, 6-{4-[(2R)-2,3-Dihydroxypropyl]piperazin-1-yl}-4-[(2-fluoro-4-methylphenyl)amino]-7-methoxycinnoline-3-carboxamide], the half-inhibitory concentration (IC50) at CSF-1R [1] was determined as 0.006 µM.

Regarding `COc1cc2nnc(C(N)=O)c(Nc3ccc(C)cc3F)c2cc1N1C[C@@H](C)N(CCO)[C@@H](C)C1` [Example 63, 4-[(2-Fluoro-4-methylphenyl)amino]-6-[(3R,5S)-4-(2-hydroxyethyl)-3,5-dimethylpiperazin-1-yl]-7-methoxycinnoline-3-carboxamide], at CSF-1R [1], half-maximal inhibition (IC50) was put at 0.012 µM. Still for that read-out and setting: for `COc1cc2nnc(C(N)=O)c(Nc3ccc(C)cc3F)c2cc1N1CCN(CCS(C)(=O)=O)CC1` [Example 65, 4-[(2-Fluoro-4-methylphenyl)amino]-7-methoxy-6-{4-[2-(methylsulfonyl)ethyl]piperazin-1-yl}cinnoline-3-carboxamide] the value was 0.006 µM. With `COc1cc2nnc(C(N)=O)c(Nc3cccc(Cl)c3F)c2cc1OC` [Example 3, 4-[(3-Chloro-2-fluorophenyl)amino]-6,7-dimethoxycinnoline-3-carboxamide], the IC50 on CSF-1R [2] is below 0.003 µM. Turning to `COc1cc2nnc(C(N)=O)c(Nc3ccc(C)cc3F)c2cc1N1CCN(C(CO)CO)CC1` [Example 66, 4-[(2-Fluoro-4-methylphenyl)amino]-6-{4-[2-hydroxy-1-(hydroxymethyl)ethyl]piperazin-1-yl}-7-methoxycinnoline-3-carboxamide], the IC50 against CSF-1R [1] was 0.004 µM. The same measure, in the same setting: for `Cc1ccc(Nc2c(C(N)=O)nnc3cc(N4CCN(CCO)CC4)ccc23)c(F)c1` [Example 57, 4-[(2-Fluoro-4-methylphenyl)amino]-7-[4-(2-hydroxyethyl)piperazin-1-yl]cinnoline-3-carboxamide] the value was 0.008 µM. At CSF-1R [1], `Cc1ccc(Nc2c(C(N)=O)nnc3cc(N4CCN(C)CC4)ccc23)c(F)c1` [Example 55, 4-[(2-Fluoro-4-methylphenyl)amino]-7-(4-methylpiperazin-1-yl)cinnoline-3-carboxamide] gave an IC50 of 0.003 µM.

The values are drawn from US20110190272A1, “CHEMICAL COMPOUNDS” (ASTRAZENECA AB, priority 2008, published 2011).
